Assay results reported in patent US9464098B2, “Substituted triazole boronic acid compounds” (Hoffmann-La Roche Inc., priority 2012, dated 2016).

Experiments:
[1] = system: Th1/17 differentiation, B cell effector functions and production of inflammatory cytokines (IL-6, TNF-α, IL-23); conditions: cited from earlier work
[2] = system: mouse CAIA and CIA arthritis models; conditions: cited from earlier work
[3] = system: MRL/lpr lupus-prone mice; conditions: cited from earlier work
[4] = system: DSS-induced colitis model in mice; conditions: cited from earlier work
[5] = molecular target: T1, β 5i (chymotrypsin-like activity) (Homo sapiens, UniProt P20618+P28062); assay: Cell-Based Proteasome Activity/Selectivity Assay (Ramos cells), substrate (ANW)2Rh110; conditions: β 5i substrate (ANW)2Rh110, highest concentration tested 20 μM, read-out: Ic50: ramos:ac-(anw)2-r110
T1 construct: protease activity associated with the proteasome complex in cultured cells; endogenous in cells; host or cells: Ramos cells
Excerpt: (§1) Cell-Based Proteasome Activity/Selectivity Assay
(§2) The Cell-Based Proteasome subunit activity/selectivity assay was a panel of 5 fluorogenic assays that independently measured the activity of β5c or β 5i (chymotrypsin-like activity), β 2c/2i (trypsin-like), and β 1c or β 1i (caspase-like) protease activity associated with the proteasome complex in cultured cells. Specifically, the following substrates were used for respective subunit activities: β 1i: (PAL)2Rh110, β 1c: (LLE)2Rh110, β 2c/2i: (KQL)2Rh110, β 5c: (WLA)2Rh110, β 5i: (ANW)2Rh110. The following procedure was followed:
(§3) Cell preparation: Plated 25 μl of Ramos cells (2×10^6/ml in DPBS) into half area plate (PerkinElmer Cat 6005569) to final 5×10^4 cells/well. Added 0.5 μl of 100× 4-fold serial diluted test compounds or DMSO to each well. Highest concentration of compound tested was 20 μM, thus compound serial dilution started from […]. Incubated for 30 minutes at 37° C. Then equilibrated at room temperature for 15 minutes. Added 25 μl of 2× reaction mix consisting of 0.025% digitonin, 20 μM of each substrates and 0.5M sucrose in DPBS. Shaked for one minute @ 700 rpm. Incubated for 120 min at room temperature. Then read the plates with an Envision multilabel plate reader (PerkinElmer) with 500 nm excitation/519 nm emission.

[6] = molecular target: T2, β5c (chymotrypsin-like activity) (Homo sapiens, UniProt P20618+P28074); assay: Cell-Based Proteasome Activity/Selectivity Assay (Ramos cells), substrate (WLA)2Rh110; conditions: β 5c substrate (WLA)2Rh110, highest concentration tested 20 μM
T2 construct: protease activity associated with the proteasome complex in cultured cells; endogenous in cells; host or cells: Ramos cells
Excerpt: as §1, §2, §3

[7] = system: β 2c/2i (trypsin-like); assay: Cell-Based Proteasome Activity/Selectivity Assay (Ramos cells), substrate (KQL)2Rh110; conditions: β 2c/2i substrate (KQL)2Rh110, highest concentration tested 20 μM
Excerpt: as §1, §2, §3

[8] = molecular target: T3, β 1i (caspase-like) (Homo sapiens, UniProt P28065+P40306); assay: Cell-Based Proteasome Activity/Selectivity Assay (Ramos cells), substrate (PAL)2Rh110; conditions: β 1i substrate (PAL)2Rh110, highest concentration tested 20 μM
T3 construct: protease activity associated with the proteasome complex in cultured cells; endogenous in cells; host or cells: Ramos cells
Excerpt: as §1, §2, §3

[9] = molecular target: T4, β 1c (caspase-like) (Homo sapiens, UniProt P28072+Q99436); assay: Cell-Based Proteasome Activity/Selectivity Assay (Ramos cells), substrate (LLE)2Rh110; conditions: β 1c substrate (LLE)2Rh110, highest concentration tested 20 μM
T4 construct: protease activity associated with the proteasome complex in cultured cells; endogenous in cells; host or cells: Ramos cells
Excerpt: as §1, §2, §3

[10] = system: IP10 level in PBMCs stimulated with CpG Type A; assay: PBMC IP-10 Assay; assay type: cell-based; conditions: PBMCs stimulated with CpG Type A 2.5 μM, overnight, IP10 AlphaLISA
Method: PBMCs were isolated from whole blood as follows: Blood was collected in a sterile environment in heparinized tubes. Blood was diluted with an equal volume PBS/2% FCS and 30 ml of this mixture was added to ACCUSPIN tubes containing 15 ml Histopaque-1077 already centrifuged at 800 g for 30 seconds and warmed up at room temperature. The tubes were then centrifuged at 800 g for 20 minutes at room temperature with no brake. The mononuclear band, just above the polyethylene frit, was removed by Pasteur pipet. These mononuclear cells were washed three times with sterile PBS, counted, and resuspended in RPMI 1640 supplemented with 10% heat inactivated fetal calf serum, 10 mM HEPES, 1 mM sodium pyruvate, penicillin (50 U/ml), streptomycin (50 μg/ml) and glutamine (2 mM) to approximately 1.5×10^6/ml. Approximately 2×10^5 cells/well were plated in 96 well tissue culture plates (BD Falcon 353072), and preincubated 60 mi/37° C. with a titration of compounds, in a final concentration of 1% DMSO. Cells were then stimulated with CpG Type A (Invivogen, Cat # tlrl-2216; ODN 2216) at a final concentration of 2.5 μM. Cells were incubated overnight, and supernatants were removed. PBMC viability of cells remaining in the well was measured with ATPlite luminescence assay (Perkin-Elmer) per the manufacturer's instructions. Luminescence was measured on the Perkin-Elmer Envision, using the luminescence filter. IP10 level was measured with CXCL10/IP10 AlphaLISA kit (Perkin-Elmer) per the manufacturer's instructions, except halving all volumes. Fluorescence was measured on the Envision Multilabel plate reader, using the AlphaScreen standard settings.

| SMILES | IC50 [5] [nM] | IC50 [6] [nM] | IC50 [7] [nM] | IC50 [8] [nM] | IC50 [9] [nM] | block of Th1/17 differentiation, B cell effector functions and production of inflammatory cytokines [1] | disease score [2] | disease progression [3] | plasma cells numbers and levels of anti-dsDNA IgG [3] | inflammation and tissue destruction [4] | EC50 [10] [nM] |
| --- | --- | --- | --- | --- | --- | --- | --- | --- | --- | --- | --- |
| COc1ccc(C[C@H](NC(=O)[C@H](C)NC(=O)CN2CCOCC2)C(=O)N[C@@H](Cc2ccccc2)C(=O)[C@@]2(C)CO2)cc1 [PR-957] |  |  |  |  |  | potently block | significantly decrease disease score | prevented disease progression | reduced plasma cells numbers and levels of anti-dsDNA IgG | reduced inflammation and tissue destruction |  |
| O=C(N[C@@H](Cc1ccccc1)B(O)O)c1cn(CCNC(=O)c2ccc(C(F)(F)F)cc2F)nn1 [Example 3, (R)-1-(1-(2-(2-Fluoro-4-(trifluoromethyl)benzamido)ethyl)-1H-1,2,3-triazole-4-carboxamido)-2-phenylethylboronic acid] | 2 | 6 | > 20000 | 10 | 7340 |  |  |  |  |  | 26.8 |

Now from value to compound, other results behind:

| IC50 [5] [nM] | IC50 [6] [nM] | IC50 [7] [nM] | IC50 [8] [nM] | IC50 [9] [nM] | SMILES | block of Th1/17 differentiation, B cell effector functions and production of inflammatory cytokines [1] | disease score [2] | disease progression [3] | plasma cells numbers and levels of anti-dsDNA IgG [3] | inflammation and tissue destruction [4] | EC50 [10] [nM] |
| --- | --- | --- | --- | --- | --- | --- | --- | --- | --- | --- | --- |
| 7 | 16 | 13500 | 25 | 6630 | COc1ccc(C(=O)NCCn2cc(C(=O)N[C@@H](Cc3ccccc3)B(O)O)nn2)c(OC)c1OC [Example 2, (R)-2-Phenyl-1-(1-(2-(2,3,4-trimethoxybenzamido)ethyl)-1H-1,2,3-triazole-4-carboxamido)ethylboronic acid] |  |  |  |  |  | 33.7 |
| 2 | 20 | > 20000 | 9 | 7480 | COc1cc(C(F)(F)F)ccc1C(=O)NCCn1cc(C(=O)N[C@@H](Cc2ccccc2)B(O)O)nn1 [Example 4, (R)-1-(1-(2-(2-Methoxy-4-(trifluoromethyl)benzamido)ethyl)-1H-1,2,3-triazole-4-carboxamido)-2-phenylethylboronic acid] |  |  |  |  |  | 12.2 |
| 2 | 39 | > 20000 | 4 | 320 | COc1ccc(C(=O)NCCn2cc(C(=O)N[C@@H](CC(C)C)B(O)O)nn2)c(OC)c1OC [Example 1, (R)-3-Methyl-1-(1-(2-(2,3,4-trimethoxybenzamido)ethyl)-1H-1,2,3-triazole-4-carboxamido)butylboronic acid] |  |  |  |  |  | 29.5 |
